# From ChEMBL document CHEMBL6182843, “Actinomycetes: Treasure trove for discovering novel antibiotic candidates” (2025)
# Tests used:
# Type in all cases: functional
# Staphylococcus aureus [1] = experiment: Antibacterial activity against methicillin-resistant Staphylococcus aureus ATCC 43300 assessed as reduction in bacterial growth measured for 12 hrs by CLSI protocol based broth microdilution method
# Escherichia coli [2] = experiment: Antibacterial activity against […] Escherichia coli ATCC 25922 assessed as reduction in bacterial growth measured for 12 hrs by CLSI protocol based broth microdilution method
# Staphylococcus aureus [3] = experiment: Antibacterial activity against Staphylococcus aureus assessed as reduction in microbial growth incubated for 24 hrs by CLSI protocol based analysis
# Escherichia coli [4] = experiment: Antibacterial activity against Escherichia coli ATCC 25922 assessed as reduction in microbial growth incubated for 24 hrs by CLSI protocol based analysis
# Xanthomonas campestris = experiment: Antibacterial activity against Xanthomonas campestris
# Xanthomonas oryzae = experiment: Antibacterial activity against Xanthomonas oryzae
# Bacillus cereus [5] = experiment: Antibacterial activity against Bacillus cereus ATCC 11778 assessed as reduction in bacterial growth
# Bacillus subtilis = experiment: Antibacterial activity against Bacillus subtilis ATCC 6633 assessed as reduction in microbial growth
# Staphylococcus aureus [6] = experiment: Antibacterial activity against Staphylococcus aureus ATCC 25923 assessed as reduction in microbial growth
# Staphylococcus aureus [7] = experiment: Antibacterial activity against Staphylococcus aureus ATCC 33592 assessed as reduction in microbial growth
# Staphylococcus aureus [8] = experiment: Antibacterial activity against Staphylococcus aureus ATCC 33591
# Enterococcus faecalis [9] = experiment: Antibacterial activity against Vancomycin-resistant Enterococcus faecalis ATCC 51299
# [10] = tested on: Staphylococcus epidermidis; experiment: Antimicrobial activity against Staphylococcus epidermidis ATCC 12228 assessed as reduction in microbial growth incubated for 16 hrs by CLSI protocol based Mueller-Hinton broth micro-dilution method
# Staphylococcus aureus [11] = experiment: Antimicrobial activity against Staphylococcus aureus ATCC 29213 assessed as reduction in microbial growth incubated for 16 hrs by CLSI protocol based Mueller-Hinton broth micro-dilution method
# Staphylococcus aureus [12] = experiment: Antimicrobial activity against Staphylococcus aureus ATCC 25913 assessed as reduction in bacterial growth by CLSI protocol based Mueller-Hinton broth micro-dilution method
# Enterococcus faecalis [13] = experiment: Antibacterial activity against Enterococcus faecalis ATCC 29212 assessed as reduction in microbial growth by CLSI protocol based Mueller-Hinton broth micro-dilution method
# Bacillus cereus [14] = experiment: Antibacterial activity against Bacillus cereus
# Staphylococcus aureus [15] = experiment: Antibacterial activity against Staphylococcus aureus
# Staphylococcus aureus [16] = experiment: Antibacterial activity against methicillin-Staphylococcus aureus ATCC 29213 assessed as reduction in bacterial growth by broth micro-dilution method
# Micrococcus luteus = experiment: Antibacterial activity against Micrococcus luteus ML01 assessed as reduction in bacterial growth incubated for 24 to 48 hrs by serial dilution method; conditions: time 24-48 hrs
# Staphylococcus aureus [17] = experiment: Antibacterial activity against methicillin-resistant Staphylococcus aureus MB5393 assessed as reduction in bacterial growth incubated for 18 to 20 hrs by broth micro-dilution method; conditions: time 18-20 hrs
# Staphylococcus aureus [18] = experiment: Antibacterial activity against Staphylococcus aureus ATCC 25923 assessed as reduction in bacterial growth by CLSI protocol based MHB micro-silution method
# Streptococcus suis = experiment: Antibacterial activity against Streptococcus suis SC19 assessed as reduction in bacterial growth by CLSI protocol based MHB micro-silution method
compound,measurement,setting,value
CC(=O)NCCc1c(CN2c3ccccc3[C@@]3(O)CCN(C(C)=O)[C@]23O)[nH]c2ccccc12,MIC,Staphylococcus aureus [1],7 µg/mL
same,MIC,Escherichia coli [2],25 µg/mL
CC[C@H](C)C[C@]1(O)C(=O)NC[C@H](O)CC(=O)O[C@H](CO[C@@H]2O[C@H](CO)[C@@H](O)[C@H](O)[C@H]2O)CC/C=C(\C)[C@H]2C(C)=C[C@@]3(C)O[C@H]4C[C@]1(O)O[C@@]4(C)[C@@H]23,MIC,Staphylococcus aureus [3],11.6 µg/mL
same,MIC,Escherichia coli [4],15.7 µg/mL
COC(=O)[C@@]1(O)C[C@@H](C)C[C@H](OC)[C@H](O)[C@@H](C)C/C=C(/C)[C@H](OC(N)=O)[C@@H](OC)/C=C\C=C(/C)C(=O)NC2=CC(=O)O[C@]21O,MIC,Xanthomonas campestris,8.12 µg/mL
same,MIC,Xanthomonas oryzae,4.06 µg/mL
CC(=O)OC1[C@H]2C=C3C(=O)[C@@]4(C)C[C@@H](C)[C@](O)(O4)[C@@H]4C(=O)O[C@]25C[C@@H](C)[C@@]1(C)O[C@@]345 (some centres undefined),MIC,Bacillus cereus [5],> 50 µg/mL
CC[C@H](C)[C@@H]1NC(=O)[C@@H](Cc2c[nH]c3cc(Br)ccc23)NC(=O)[C@@H](Cc2c[nH]c3ccccc23)NC(=O)[C@@H](CO)NC(=O)[C@@H](CCC(=O)O)NC(=O)[C@@H](C(C)C)NC1=O,MIC,Bacillus subtilis,1.6 µg/mL
same,MIC,Staphylococcus aureus [6],6.3 µg/mL
same,MIC,Staphylococcus aureus [7],6.3 µg/mL
CC[C@H](C)C[C@@]1(O)C(=O)C[C@H](O)[C@](C)(O)/C=C(\C)[C@@H](O)/C(C)=C/C(C)=C/C[C@@H](CO[C@@H]2O[C@H](CO)[C@@H](O)[C@H](O)[C@H]2O)OC(=O)C[C@@H](O)CNC1=O,MIC,Staphylococcus aureus [3],21 µg/mL
same,MIC,Escherichia coli [4],27.9 µg/mL
CC[C@H](C)[C@@H]1NC(=O)[C@@H](Cc2c[nH]c3cc(Br)ccc23)NC(=O)[C@@H](Cc2c[nH]c3ccc(Br)cc23)NC(=O)[C@@H](CO)NC(=O)[C@@H](CCC(=O)O)NC(=O)[C@@H](C(C)C)NC1=O,MIC,Bacillus subtilis,1.6 µg/mL
same,MIC,Staphylococcus aureus [6],25 µg/mL
same,MIC,Staphylococcus aureus [7],> 100 µg/mL
COC(=O)[C@]1(O)C[C@@H](C)C[C@H](OC)[C@H](O)[C@@H](C)C/C=C(/C)[C@H](OC(N)=O)[C@@H](OC)/C=C\C=C(/C)C(=O)NC2=CC(=O)O[C@]21O,MIC,Xanthomonas campestris,16.2 µg/mL
same,MIC,Xanthomonas oryzae,2.03 µg/mL
COc1cc2oc3c(O)c4c(c(O)c3c(=O)c2cc1O)-c1c(cc2cc(C)n(CCO)c(=O)c2c1O)CC4,MIC,Staphylococcus aureus [8],0.25 µg/mL
same,MIC,Enterococcus faecalis [9],0.25 µg/mL
COc1cc2oc3c(O)c4c(c(O)c3c(=O)c2cc1O)-c1c(cc2cc(C)[nH]c(=O)c2c1O)CC4,MIC,Staphylococcus aureus [8],0.03 µg/mL
same,MIC,Enterococcus faecalis [9],0.03 µg/mL
C/C=C1\NC(=O)[C@@H](CC)NC(=O)CNC(=O)[C@@](C)(C(C)=O)NC(=O)[C@H](Cc2c[nH]c3cccc(OC)c23)NC(=O)c2csc(n2)[C@@H](C)NC(=O)CNC1=O,MIC,[10],1.6 µM
same,MIC,Staphylococcus aureus [11],3.1 µg/mL
C[C@@H](O)[C@@H]1CC[C@H](c2ccc(O)c3c2C(=O)[C@]24O[C@]2([C@@H](C)O[C@@H]2CC(=O)O[C@@H]24)[C@H]3O)N1C,MIC,Staphylococcus aureus [12],40 µg/mL
same,MIC,Enterococcus faecalis [13],40 µg/mL
COc1c(O)cc2cc1C[C@@H](C)C[C@H](OC)[C@H](O)[C@@H](C)/C=C(\C)[C@H](OC(N)=O)[C@@H](OC)CC/C=C(\C)C(=O)N2 [REBLASTATIN],MIC,Xanthomonas campestris,0.125 µg/mL
same,MIC,Xanthomonas oryzae,4.06 µg/mL
COC1=C(CC2=C(C)CC(C)(C)CC2)C(=O)c2c(cc(O)c(C)c2O)C1=O,MIC,Bacillus cereus [14],50 µg/mL
COc1cc2oc3c(c(=O)c2cc1O)C(=O)C1=C(CCc2cc4cc(C)n(CCO)c(=O)c4c(O)c21)C3=O,MIC,Staphylococcus aureus [8],0.12 µg/mL
same,MIC,Enterococcus faecalis [9],0.25 µg/mL
CC1C[C@@](C)(C(=O)[C@]23C=C[C@@]45C[C@H](C)[C@@](C)(O[C@]42CC(=O)O5)[C@H]3O)OC1=O (some centres undefined),MIC,Bacillus cereus [5],25 µg/mL
CC(=O)[C@@H](C)N(CCc1c[nH]c2ccccc12)C(C)=O,MIC,Escherichia coli [2],7 µg/mL
CC(=O)c1cc(C)c(C)n1CCc1c[nH]c2ccccc12,MIC,Staphylococcus aureus [1],25 µg/mL
CC(=O)NCCc1c(CC2c3ccccc3[C@]3(O)CCN(C(C)=O)[C@@]23O)[nH]c2ccccc12 (some centres undefined),MIC,Staphylococcus aureus [1],25 µg/mL
same,MIC,Escherichia coli [2],13 µg/mL
CC1=C(CC2=C(O)C(=O)c3cc(O)c(C)c(O)c3C2=O)CCC(C)(C)C1,MIC,Bacillus cereus [14],6.25 µg/mL
C/C=C1\NC(=O)[C@@H](C)NC(=O)CNC(=O)[C@@](C)(C(C)=O)NC(=O)[C@H](Cc2c[nH]c3cccc(OC)c23)NC(=O)c2csc(n2)[C@@H](C)NC(=O)CNC1=O,MIC,[10],50 µM
same,MIC,Staphylococcus aureus [11],12.5 µg/mL
CO[C@H]1C[C@H](C)Cc2cc(O)cc(c2)NC(=O)/C(C)=C/CC[C@H](OC)[C@@H](OC(N)=O)/C(C)=C/[C@H](C)[C@H]1O,MIC,Xanthomonas campestris,2.03 µg/mL
same,MIC,Xanthomonas oryzae,0.25 µg/mL
CC[C@H]1NC(=O)CNC(=O)[C@@](C)(C(C)=O)NC(=O)[C@H](Cc2c[nH]c3cccc(OC)c23)NC(=O)c2csc(n2)[C@@H](C)NC(=O)CNC(=O)/C(=C/CO)NC1=O,MIC,[10],1.6 µM
same,MIC,Staphylococcus aureus [11],25 µg/mL
Cc1c(O)cc2c(c1O)C(=O)C(C[C@@]13CCC(C)(C)C[C@]1(C)O3)=C(Cl)C2=O,MIC,Bacillus cereus [14],12.5 µg/mL
same,MIC,Staphylococcus aureus [15],25 µg/mL
O=C1NC(=O)C(c2c[nH]c3cc(Cl)c(Cl)cc23)=C1c1c[nH]c2ccc(Cl)cc12,MIC,Staphylococcus aureus [16],1 µg/mL
same,MIC,Micrococcus luteus,0.5 µg/mL
C[C@@H]1C[C@@]2(C)O[C@]1(O)[C@@H]1C(=O)O[C@@]34C[C@@H](C)[C@@]5(C)O[C@@]13C(=C[C@@H]4C5O)C2=O (some centres undefined),MIC,Bacillus cereus [5],50 µg/mL
CC[C@@H](/C=C/[C@@H]1C/C=C(\C)[C@@H](O)[C@@H](C)[C@H](O[C@H]2O[C@H](CO)[C@H](O)[C@@H](O)[C@H]2O)C[C@@H](O)[C@@H](C)[C@H](O)C[C@@H]2C[C@H](O)[C@@H](O)[C@](O)(C[C@@H](O[C@H]3O[C@@H](C)[C@H](O)[C@@H](O[C@H]4C[C@H](N)[C@@H](O)[C@@H](C)O4)[C@@H]3O[C@H]3O[C@@H](C)[C@H](O)[C@@H](O)[C@@H]3O)[C@@H](C)/C=C/[C@@H](O)C[C@@H](O)[C@@H](C)/C=C/C(=O)O1)O2)[C@@H](O)[C@@H](C)[C@H](CC)O[C@H]1C[C@](C)(N)[C@H](O)[C@H](C)O1,MIC,Staphylococcus aureus [17],2 µg/mL
CC[C@@H](/C=C/[C@@H]1C/C=C(\C)[C@@H](O)[C@@H](C)[C@H](O)C[C@@H](O)[C@@H](C)[C@H](O)C[C@@H]2C[C@H](O)[C@@H](O)[C@](O)(C[C@@H](O[C@H]3O[C@@H](C)[C@H](O)[C@@H](O[C@H]4C[C@H](N)[C@@H](O)[C@@H](C)O4)[C@@H]3O[C@H]3O[C@@H](C)[C@H](O)[C@@H](O)[C@@H]3O)[C@@H](C)/C=C/[C@@H](O)C[C@@H](O)[C@@H](C)/C=C/C(=O)O1)O2)[C@@H](O)[C@@H](C)[C@H](CC)O[C@H]1C[C@](C)(N)[C@H](O)[C@H](C)O1,MIC,Staphylococcus aureus [17],1 µg/mL
C/C=C1\NC(=O)[C@@H](CC)NC(=O)CNC(=O)[C@@](C)(C(C)=O)NC(=O)[C@H](Cc2c[nH]c3ccc(O)c(OC)c23)NC(=O)c2csc(n2)[C@@H](C)NC(=O)CNC1=O,MIC,[10],12.5 µM
same,MIC,Staphylococcus aureus [11],200 µg/mL
C[C@@H](O)[C@@H]1CC[C@H](c2ccc(O)c3c2C(=O)[C@@]24O[C@@]2([C@@H](C)O[C@@H]2CC(=O)O[C@@H]24)[C@H]3O)N1C,MIC,Staphylococcus aureus [12],40 µg/mL
same,MIC,Enterococcus faecalis [13],40 µg/mL
COC(=O)c1[nH]c(C(=O)O)c(-c2c[nH]c3c(Cl)cccc23)c1-c1c[nH]c2c(Cl)cccc12,MIC,Staphylococcus aureus [16],3 µg/mL
same,MIC,Micrococcus luteus,16 µg/mL
CCC[C@@H](O)Cc1cc(O)cc2c1C(=O)c1c(O)ccc(O)c1C2=O,MIC,Staphylococcus aureus [18],1.56 µg/mL
same,MIC,Streptococcus suis,1.56 µg/mL
CC[C@H](C)[C@@H]1NC(=O)[C@@H](Cc2c[nH]c3cc(Cl)ccc23)NC(=O)[C@@H](Cc2c[nH]c3ccc(Cl)cc23)NC(=O)[C@@H](CO)NC(=O)[C@@H](CCC(=O)O)NC(=O)[C@@H](C(C)C)NC1=O,MIC,Bacillus subtilis,1.6 µg/mL
same,MIC,Staphylococcus aureus [6],3.1 µg/mL
same,MIC,Staphylococcus aureus [7],1.6 µg/mL
CO[C@H]1/C=C\C=C(/C)C(=O)NC2=CC(=O)C(O)=C(C[C@@H](C)C[C@H](OC)[C@H](O)[C@@H](C)/C=C(\C)[C@@H]1OC(N)=O)C2=O,MIC,Xanthomonas campestris,0.25 µg/mL
same,MIC,Xanthomonas oryzae,0.125 µg/mL
COc1cc2oc3c(c(=O)c2cc1O)C(=O)C1=C(CCc2cc4cc(C)[nH]c(=O)c4c(O)c21)C3=O,MIC,Staphylococcus aureus [8],0.12 µg/mL
same,MIC,Enterococcus faecalis [9],0.25 µg/mL
